Results published in US20170121295A1, “POLYCYCLIC LPA1 ANTAGONIST AND USES THEREOF” (AMIRA PHARMACEUTICALS, INC., priority 2010, published 2017).

Tests used:
human LPA2 = molecular target: T1, human LPA2 (Homo sapiens, UniProt Q9HBW0); test: LPA2 Calcium Flux Assay; type: cell-based; details: 100 nM LPA; read-out: Ca Flux IC50 LPA2
T1 construct: endogenous in cells; host or cells: BT-20 human breast cancer cells
Procedure: A vector containing the human LPA2 receptor cDNA was obtained from the Missouri S&T cDNA Resource Center (www.cdna.org). The full-length cDNA fragment for human LPA2 was obtained by PCR from the vector. The nucleotide sequence of the cloned human LPA2 was determined by sequencing and confirmed to be identical to the published human LPA2 sequence (NCBI accession number NM_004720). The cDNA was cloned into the pCDNA3.1 expression plasmid and transfected into B103 cells (Invitrogen Corp., USA) by seeding cells in a 96-well poly-D-lysine coated plate at 30,000-35,000 cells per well together with 0.2 μl lipofectamine 2000 and 0.2 μg of the LPA2 expression vector. Cells were cultured overnight in complete media before being assayed for LPA-induced Ca-influx.
BT-20 human breast cancer cells are seeded at 25,000-35,000 cells per well in 150 μl complete media on Poly-D-Lysine coated black-wall clear-bottom plates. Following an overnight culture, cells are washed once with PBS then serum starved for 4-6 hours prior to the assay. […] Cells are the stimulated by the addition of 100 nM LPA and intracellular Ca^2+ measured using the Flexstation 3 (Molecular Devices). IC50s are determined using Symyx Assay Explorer analysis of drug titration curves.

[1] = Solubility in a range of solvents (crystallisation experiments); type: physicochemical; details: organic solvents; water, cyclohexane, heptane unsuitable
Procedure: 20 mg of Compound 1 was weighed into a HPLC vial. 40 μL of ethanol was added and the vial was heated to reflux with a hot air gun. The solution was cooled to ambient temperature and the solids were filtered off. Crystalline Compound 1 (Pattern 1) was obtained as determined by XRPD. In the same manner as described from ethanol, the following solvents also provided crystalline Compound 1 (Pattern 1): methanol, 2-methoxyethanol, ethanol, 1-propanol, 2-propanol, 1-butanol, butyl acetate, acetone, methylethyl ketone, anisole, toluene. 5 Volumes (i.e. 100 μL) of the following solvents with heating also provided crystalline Compound 1 (Pattern 1): nitromethane, acetonitrile, ethyl acetate, cumene.
Compound 1 dissolved in 2 volumes (i.e. 40 μL) of the following solvents at ambient temperature: 1-4-dioxane, tetrahydrofuran. The vials were uncapped and allowed to slowly evaporate. This provided crystalline Compound 1 (Pattern 1).

[2] = Metabolite identification in liver microsomes; type: in vitro ADME, rat, dog, monkey, human; details: human microsomes
Procedure: To determine the qualitative metabolic profile, 30 μM of Compound 1 was incubated aerobically with rat, dog, monkey, or human liver microsomes (1 mg/mL). The incubations were performed in phosphate buffer at pH 7.4, 37° C., with the reaction initiated by the addition of P-NADPH, GSH and/or UDPGA (1, 5 and 2 mM final concentration, respectively). The reaction was terminated by the addition of 3 times incubation volume of acetonitrile after 60 minutes. The sample was centrifuged and the supernatant was transferred, nitrogen blow dried and reconstituted in 50% acetonitrile in water for LC/MS analysis.
LC/MS/MS analysis was carried out with a Sciex API-4000Qtrap tandem mass spectrometer (Applied Biosystems/Life Technologies, Carlsbad, Calif.) interfaced to a high-performance liquid chromatography system consisting of an Agilent 1200 series pump (Foster City, Calif.) and a LEAP Technologies PAL autoinjector (Carrboro, N.C.).
(§1) Parent/metabolite analysis was conducted in the positive ion mode (ESI) by multiple reaction monitoring of parent. The mobile phases contained 10 mM ammonium acetate in water with 0.05% formic acid (solvent A) and 10 mM ammonium acetate in 50% acetonitrile/50% methanol with 0.05% formic acid (solvent B). For Compound 1, the flow rate was maintained at 1 mL/min and the total run time was 2.5 min. Analytes were separated on a YMC ODS-AQ column (2.1×150 mm; 3 μm) and eluted with a linear gradient as follows: • 1. mobile phase was held for 0.5 min at 5% B, • 2. B was increased from 5% to 95% over the next 0.2 min, • 3. B was held constant for 1.3 min at 95%, and • 4. B was returned to the initial gradient conditions.
GSH adducts were investigated in microsomes, hepatocytes and rat bile using several methods including the neutral loss of pyroglutamate (129 Da) as well as a precursor ion scans of Compound 1 (105 Da, 318 Da and 438 Da).
For metabolite quantitation, the flow rate was maintained at 0.25 mL/min and the total run time was 60 min. Analytes were separated using a linear gradient as follows: • 1. mobile phase was held for 5 min at 5% B, • 2. […]

[3] = Metabolites generated in vivo (rat bile and urine, rat and dog plasma)
Procedure: Compound 2 (2 mg/kg) was administered intravenously (IV) to fasted rats as a solution in 0.9% saline via a bolus injection into the jugular vein (2 mg/mL; […]).
Rats with surgically placed bile duct and jugular vein cannula were purchased from Charles River Laboratories and allowed to acclimate for 2 days. Compound 2 was intravenously dosed (2 mg/kg) to three rats as a solution in 0.9% saline (2 mg/mL; 1 mL/kg). Bile samples were collected at time-points 0-2, 2-5 and 5-8, and urine samples were collected at time-points 0-4 and 4-8 hrs post-dose in 8 mL scintillation vials and stored at −40° C. until analysis.
Concentrations of Compound 1 in rat plasma were determined by LC-MS/MS after protein precipitation. Rat plasma (100 μL) was treated with 400 μL of internal standard solution (ISTD, buspirone in acetonitrile containing 1.5% acetic acid) to precipitate proteins. Samples were vortexed and then centrifuged for 10 min at approximately 4,000 rpm (3700×g) at 4° C. (Beckman centrifuge, Brea, Calif.).
as §1
For metabolite quantitation, the flow rate was maintained at 0.25 mL/min and the total run time was 60 min. Analytes were separated using a linear gradient as follows: • 1. mobile phase was held for 5 min at 5% B, • 2. B was increased from 5% to 95% over the next 45 min. • 3. B was held constant for 5 min at 95%, and • 4. B was returned to the initial gradient conditions

LPA4 = LPA4 (Homo sapiens, UniProt Q99677); test: LPA4 Calcium Flux Assay; type: cell-based; details: read-out: Ca Flux IC50 LPA4
LPA5 = LPA5 (Homo sapiens, UniProt Q9H1C0); test: LPA5 Calcium Flux Assay; type: cell-based; details: read-out: Ca Flux IC50 LPA5
Chain of LPA5 (Q9H1C0 whole entry, species assumed): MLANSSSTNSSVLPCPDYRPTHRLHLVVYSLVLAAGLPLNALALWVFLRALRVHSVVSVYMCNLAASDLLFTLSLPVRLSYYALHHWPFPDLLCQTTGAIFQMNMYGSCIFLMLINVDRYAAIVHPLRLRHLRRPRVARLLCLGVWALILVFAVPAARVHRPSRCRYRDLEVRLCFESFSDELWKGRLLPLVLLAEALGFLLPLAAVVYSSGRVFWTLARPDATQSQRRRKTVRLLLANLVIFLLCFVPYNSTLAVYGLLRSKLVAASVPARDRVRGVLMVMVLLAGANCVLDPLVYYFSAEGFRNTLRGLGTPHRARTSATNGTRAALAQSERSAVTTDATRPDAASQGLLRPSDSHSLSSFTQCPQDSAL

Chain of LPA4 (Q99677 whole entry, species assumed): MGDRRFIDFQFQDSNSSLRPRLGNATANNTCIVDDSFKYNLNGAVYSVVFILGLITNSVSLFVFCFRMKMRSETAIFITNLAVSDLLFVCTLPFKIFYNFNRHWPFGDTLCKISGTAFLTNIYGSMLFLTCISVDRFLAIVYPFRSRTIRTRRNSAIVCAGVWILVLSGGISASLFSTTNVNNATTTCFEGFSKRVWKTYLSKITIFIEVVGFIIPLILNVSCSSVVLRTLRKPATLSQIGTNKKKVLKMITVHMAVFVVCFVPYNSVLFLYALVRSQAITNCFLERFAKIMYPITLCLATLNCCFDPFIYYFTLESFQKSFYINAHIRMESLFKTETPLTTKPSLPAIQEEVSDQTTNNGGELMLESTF
T1 sequence (Q9HBW0 whole entry): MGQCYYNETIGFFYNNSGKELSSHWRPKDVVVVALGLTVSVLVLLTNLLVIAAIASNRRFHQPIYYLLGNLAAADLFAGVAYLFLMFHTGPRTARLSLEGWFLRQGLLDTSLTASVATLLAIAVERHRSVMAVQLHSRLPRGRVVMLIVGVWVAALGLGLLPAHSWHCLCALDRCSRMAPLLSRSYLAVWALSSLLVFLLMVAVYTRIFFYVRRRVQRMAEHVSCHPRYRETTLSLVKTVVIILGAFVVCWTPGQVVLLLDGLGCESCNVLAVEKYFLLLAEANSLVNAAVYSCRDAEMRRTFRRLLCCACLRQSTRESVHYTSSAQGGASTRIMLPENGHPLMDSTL

IC50 (human LPA2): > 1000 nM
solubility in a range of solvents [1]: good solubility in a range of solvents
GSH adduct in microsomes [2]: No GSH adduct was observed
GSH adduct in rat bile ([3]; in vivo): neither GSH adduct is observed
IC50 (LPA4): > 1000 nM
IC50 (LPA5): > 1000 nM
Compound: Cc1noc(-c2ccc(-c3ccc(C4(C(=O)O)CC4)cc3)cc2)c1NC(=O)O[C@H](C)c1ccccc1 [Compound 1, 1-{4′-[3-methyl-4-((R)-1-phenyl-ethoxycarbonylamino)-isoxazol-5-yl]-biphenyl-4-yl}-cyclopropanecarboxylic acid]
primary amine (decarboxylation) and its secondary metabolites ([3]; plasma (rat & dog), rat bile or urine): Neither the primary amine (i.e. decarboxylation) nor its secondary metabolites (glycosylation or glucuronidation) are observed
